Experimental data as given in ChEMBL document CHEMBL2016569, “Pyronepolyene C-glucosides with NF-κB inhibitory and anti-influenza A viral (H1N1) activities from the sponge-associated fungus Epicoccum sp. JJY40” (Bioorg Med Chem Lett, 2012).

Experiments:
Influenza A virus = assay: Antiviral activity against Influenza A virus (A/Puerto Rico/8/34(H1N1)) infected in MDCK cells assessed as inhibition of virus induced cytopathicity after 48 hrs; type: functional, organism-based; conditions: A/Puerto Rico/8/1934(H1N1)
RAW264.7 = assay: Inhibition of LPS-induced NFkappaB expression in mouse RAW264.7 cells at 0.1 uM pretreated for 4 hrs before LPS challenge measured after 24 hrs by luciferase reporter gene assay relative to control; type: cell-based
[1] = Inhibition of LPS-induced NFkappaB expression in mouse RAW264.7 cells pretreated for 4 hrs before LPS challenge measured after 24 hrs by luciferase reporter gene assay relative to control; type: cell-based

SMILES | IC50 (Influenza A virus) [µM] | inhibition (RAW264.7) [%] | IC50 [1] [µM]
NC(=O)c1ncn([C@@H]2O[C@H](CO)[C@@H](O)[C@H]2O)n1 [RIBAVIRIN] | 115 |  | 
S=C(S)N1CCCC1 |  | 85 | 
CCC(C)CC(C)/C=C(/C=C(C)\C=C\C=C\C=C\C=C\C=C\c1cc(O)c([C@@H]2O[C@H](CO)[C@H](O)[C@H](O)[C@H]2O)c(=O)o1)C(=O)O (stereo partly specified) | 91.5 |  | 40
CCC(C)CC(C)/C=C(/C=C(C)/C=C/C=C/C=C/C=C/C=C/c1cc(O)c([C@@H]2O[C@H](CO)[C@H](O)[C@H](O)[C@H]2O)c(=O)o1)C(=O)O (stereo partly specified) | 101 |  | 50
